Test results taken from patent US20230339939A1 (Bayer Aktiengesellschaft, priority 2020, published 2023).

How the values were obtained:
CSNK1A1 = CSNK1A1 (Homo sapiens (Human), UniProt P48729); test: CSNK1A1 Assay 2 (ADP-Glo, 1 μM ATP, substrate biotin-Ahx-KRRRAL-pS-VASLPGL); format: biochemical; settings: median, read-out: CSNK1A1 Assay 2 IC50 [mol/l] (median)
Outline: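 GST-tagged full-length human CSNK1A1 from baculovirus-infected insect cells (about 0.0375 ng/μL), preincubated 15 min at 22 °C with compound in HEPES pH 7.5 buffer, with 1 μM ATP and biotin-Ahx-KRRRAL-pS-VASLPGL substrate. ADP formed read by ADP-Glo luminescence.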

CSNK1D = CSNK1D (Homo sapiens (Human), UniProt P48730); test: CSNK1D Assay (ADP-Glo, 1 μM ATP); format: biochemical; settings: median, read-out: CSNK1D IC50 [mol/l] (median)
Outline: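 Enzyme is N-terminal GST-tagged full-length human CSNK1D from baculovirus-infected insect cells (typically about 0.5 ng/μL), with a biotinylated peptide substrate and 1 μM ATP. Compound pre-incubated 15 min at 22° C in HEPES pH 7.5 buffer; ADP formed is read by ADP-Glo luminescence.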

CSNK1A1, sequence (P48729 whole entry): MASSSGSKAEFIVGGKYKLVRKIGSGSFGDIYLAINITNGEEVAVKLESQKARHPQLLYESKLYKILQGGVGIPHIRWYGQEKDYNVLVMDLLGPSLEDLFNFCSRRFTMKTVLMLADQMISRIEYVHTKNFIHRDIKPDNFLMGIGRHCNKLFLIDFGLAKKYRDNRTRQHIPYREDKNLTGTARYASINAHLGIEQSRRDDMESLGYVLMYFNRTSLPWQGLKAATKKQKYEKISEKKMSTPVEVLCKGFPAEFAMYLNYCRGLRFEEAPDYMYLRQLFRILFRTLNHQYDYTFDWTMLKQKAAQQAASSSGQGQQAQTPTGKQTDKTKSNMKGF
CSNK1D, sequence (P48730 whole entry): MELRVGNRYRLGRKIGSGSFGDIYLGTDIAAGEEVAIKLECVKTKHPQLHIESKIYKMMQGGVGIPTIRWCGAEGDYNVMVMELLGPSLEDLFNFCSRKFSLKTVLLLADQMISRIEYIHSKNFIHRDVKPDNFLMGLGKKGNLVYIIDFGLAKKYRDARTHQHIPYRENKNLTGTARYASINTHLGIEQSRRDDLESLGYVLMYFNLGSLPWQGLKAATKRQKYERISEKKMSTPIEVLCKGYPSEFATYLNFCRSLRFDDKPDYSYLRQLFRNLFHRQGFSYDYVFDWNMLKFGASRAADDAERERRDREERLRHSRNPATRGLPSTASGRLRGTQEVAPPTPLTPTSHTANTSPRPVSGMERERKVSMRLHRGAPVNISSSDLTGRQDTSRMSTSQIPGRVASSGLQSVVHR

Row | SMILES | IC50 (CSNK1A1) [nM] | IC50 (CSNK1D) [nM]
1 | COCCC(C(=O)Nc1cc(-c2[nH]c3cccnc3c2-c2ccccn2)ccn1)c1ccc(F)cc1 (racemic) [Example 44] | 4.97 | 9.84
2 | CN1CCC(N(C)c2ccnc3c(-c4ccccn4)c(-c4ccnc(NC(=O)Cc5ccc(F)cc5)c4)[nH]c23)CC1 [Example 39, 2-(4-fluorophenyl)-N-(4-{7-[methyl(1-methylpiperidin-4-yl)amino]-3-(pyridin-2-yl)-1H-pyrrolo[3,2-b]pyridin-2-yl}pyridin-2-yl)acetamide] | 3.49 | 13.6
